Measurements published in patent US20220259235A1, “EGFR Inhibitor, Composition, and Preparation Method Therefor” (BETTA PHARMACEUTICALS CO., LTD, priority 2019, published 2022).
Read-outs that look alike come from different tables or passages of the source.

Columns and labels:
[1] = molecular target: EGFR Δ19del/T790M/C797S (Homo sapiens, UniProt P00533, T790M/C797S, form not given); assay: EGFR Δ19del/T790M/C797S kinase test (mobility shift, Caliper EZ Reader); assay type: biochemical; conditions: kinase enzymatic activity
EGFR Δ19del/T790M/C797S, sequence (P00533 with tags, fused parts or gaps DEL746-750/T790M/C797S, form open): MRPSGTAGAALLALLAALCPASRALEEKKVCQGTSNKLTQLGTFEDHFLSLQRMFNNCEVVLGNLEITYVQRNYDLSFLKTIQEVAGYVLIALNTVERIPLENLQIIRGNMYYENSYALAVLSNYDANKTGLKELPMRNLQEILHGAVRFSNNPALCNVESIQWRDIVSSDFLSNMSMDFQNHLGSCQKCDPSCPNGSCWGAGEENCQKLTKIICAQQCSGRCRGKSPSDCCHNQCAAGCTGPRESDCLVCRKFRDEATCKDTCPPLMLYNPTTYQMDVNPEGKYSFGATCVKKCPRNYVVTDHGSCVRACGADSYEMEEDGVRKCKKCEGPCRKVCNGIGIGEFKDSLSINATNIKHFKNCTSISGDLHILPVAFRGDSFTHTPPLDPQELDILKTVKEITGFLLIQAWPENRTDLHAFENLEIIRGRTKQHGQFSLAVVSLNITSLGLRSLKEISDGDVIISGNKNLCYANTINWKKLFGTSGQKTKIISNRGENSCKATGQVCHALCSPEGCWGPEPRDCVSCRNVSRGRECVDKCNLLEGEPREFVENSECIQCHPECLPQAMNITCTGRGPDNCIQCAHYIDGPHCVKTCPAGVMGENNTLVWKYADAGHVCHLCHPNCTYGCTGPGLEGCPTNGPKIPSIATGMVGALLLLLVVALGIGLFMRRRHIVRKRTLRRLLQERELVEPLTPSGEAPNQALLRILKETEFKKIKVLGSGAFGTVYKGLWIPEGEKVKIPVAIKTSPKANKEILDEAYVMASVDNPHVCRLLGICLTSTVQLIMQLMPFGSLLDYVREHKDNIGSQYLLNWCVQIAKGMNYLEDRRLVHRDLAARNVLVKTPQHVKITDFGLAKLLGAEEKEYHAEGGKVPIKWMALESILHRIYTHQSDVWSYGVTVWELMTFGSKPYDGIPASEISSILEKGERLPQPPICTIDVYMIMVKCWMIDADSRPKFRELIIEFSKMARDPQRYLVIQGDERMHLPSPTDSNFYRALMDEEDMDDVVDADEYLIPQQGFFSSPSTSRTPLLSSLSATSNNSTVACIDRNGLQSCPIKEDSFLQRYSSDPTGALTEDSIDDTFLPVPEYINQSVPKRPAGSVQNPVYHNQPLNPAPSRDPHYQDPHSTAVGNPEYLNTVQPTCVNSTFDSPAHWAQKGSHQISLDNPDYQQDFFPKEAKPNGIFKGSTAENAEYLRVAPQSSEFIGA
Method: Mobility variation analysis was performed to determine the affinity of the compound for EGFRΔ19del/T790M/C797S. The enzymatic reaction scheme is as follows:
1. Prepare 1* kinase buffer as follows:
2. Preparation of compound concentration gradient: The test compound was tested with an initial concentration of 3000 nM or 100 nM, diluted in a 384 source plate to a 100% DMSO solution with 100-fold final concentration, and the compound is 3-fold diluted with Precision to 10 concentrations. A dispenser Echo 550 was used to transfer 250 nL 100-fold final concentration of the compound to the target plate OptiPlate-384F.
3. Prepare 2.5-fold final concentration of kinase solution with 1×Kinase buffer;
4. Add 10 μL of 2.5-fold final concentration of kinase solution to the compound well and the positive control well; add 10 μL of 1×Kinase buffer to the negative control well.
5. Centrifuge at 1000 rpm for 30 seconds, shake the reaction plate for well mixation, and then incubate at room temperature for 10 minutes.
6. Prepare a mixture of ATP and Kinase substrate at 5/3-fold final concentration with 1×Kinase buffer.
7. Add 15 μL mixture of 5/3-fold final concentration of ATP and substrate to start reaction.
8. Centrifuge the 384-well plate at 1000 rpm for 30 seconds, shake it well and then incubate it at room temperature for corresponding time.
9. Add 30 μL of stop detection solution to stop the kinase reaction, centrifuge at 1000 rpm for 30 seconds, shake it well.
10. Read conversion rate with Caliper EZ Reader.
% Inhibition=((Conversion%_max−Conversion%_sample)/(Conversion%_max−Conversion%_min))*100
Wherein: Conversion%_sample is the sample conversion rate reading; Conversion%_min: Mean value of negative control wells, representing the conversion rate reading of wells without enzymatic activity; Conversion%_max: Mean value of positive control wells, representing the conversion rate reading of wells without compound inhibition.
The dose-effect curve was fitted with concentration log value as X-axis and percentage inhibition rate as Y-axis. Log (inhibitor) vs. Response—Variable Slope of GraphPad Prism 5 was used to fit the dose-effect curve to obtain IC50 value of enzymatic activity for each compound.
The calculation formula is as Y=Bottom (Top−Bottom)/(1+10^((LogIC50−X)*HillSlope)).
As illustrated in examples, IC50 value is within the following range for the compound of the present invention: “A” represents “IC50≤1nM”; “B” represents “1 nM<IC50≤100nM”.

[2] = molecular target: Ba/F3-L858R/T790M/C797S (Homo sapiens, UniProt P00533, T790M/C797S/L858R, cells depend on it); assay: Ba/F3-L858R/T790M/C797S cell proliferation assay (CellTiter Glo, 72 h); assay type: cell-based; conditions: CTG, read-out: BaF3 L858R/T790M/C797S IC50
Ba/F3-L858R/T790M/C797S, sequence (P00533 whole entry T790M/C797S/L858R): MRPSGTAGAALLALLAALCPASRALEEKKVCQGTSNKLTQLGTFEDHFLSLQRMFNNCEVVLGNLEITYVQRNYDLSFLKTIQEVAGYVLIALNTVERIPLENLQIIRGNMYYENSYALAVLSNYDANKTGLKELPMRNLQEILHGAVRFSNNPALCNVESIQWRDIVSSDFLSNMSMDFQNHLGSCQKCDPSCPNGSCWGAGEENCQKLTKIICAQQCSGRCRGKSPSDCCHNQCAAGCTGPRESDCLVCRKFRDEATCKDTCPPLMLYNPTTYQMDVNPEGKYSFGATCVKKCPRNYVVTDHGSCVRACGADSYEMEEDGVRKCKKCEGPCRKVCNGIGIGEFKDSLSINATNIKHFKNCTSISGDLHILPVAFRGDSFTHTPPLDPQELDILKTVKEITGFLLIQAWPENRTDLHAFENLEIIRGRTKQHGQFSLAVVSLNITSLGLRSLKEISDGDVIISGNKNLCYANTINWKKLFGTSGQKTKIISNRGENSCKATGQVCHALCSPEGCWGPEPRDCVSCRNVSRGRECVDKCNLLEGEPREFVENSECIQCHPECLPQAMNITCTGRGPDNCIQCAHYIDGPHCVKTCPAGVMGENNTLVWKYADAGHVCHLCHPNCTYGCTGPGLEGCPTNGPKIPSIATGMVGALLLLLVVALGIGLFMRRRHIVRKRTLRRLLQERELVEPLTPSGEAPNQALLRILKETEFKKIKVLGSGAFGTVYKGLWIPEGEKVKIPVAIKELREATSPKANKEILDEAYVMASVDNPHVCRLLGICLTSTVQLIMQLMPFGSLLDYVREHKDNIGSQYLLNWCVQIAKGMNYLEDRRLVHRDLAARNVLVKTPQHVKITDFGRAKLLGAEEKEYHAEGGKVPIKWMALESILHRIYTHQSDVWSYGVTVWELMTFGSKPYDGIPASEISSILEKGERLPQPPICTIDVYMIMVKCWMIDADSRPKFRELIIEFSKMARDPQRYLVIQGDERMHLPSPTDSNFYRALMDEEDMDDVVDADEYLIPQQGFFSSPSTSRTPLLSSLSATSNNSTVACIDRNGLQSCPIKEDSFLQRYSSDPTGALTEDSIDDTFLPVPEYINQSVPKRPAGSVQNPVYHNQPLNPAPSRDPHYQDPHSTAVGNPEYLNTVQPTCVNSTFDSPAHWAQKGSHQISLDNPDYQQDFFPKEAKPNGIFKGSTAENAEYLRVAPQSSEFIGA
Method: (§1) Cell line: Ba/F3 cells with stable overexpression of Δ19del/T790M/C797S or L858R/T790M/C797S mutant genes, named Ba/F3-Δ19del/T790M/C797S and Ba/F3-L858R/T790M/C797S, and A431 EGFR wild-type cell line.
(§2) RPMI 1640 and 10% FBS and 1% PS; _EM, 10% PBS and 1% PS
(§3) a) Dilute the test compound (20 mM stock solution) to 10 mM with 100% DMSO as the starting concentration, and then serially dilute 3 times with a “9+0” concentration in 96-well dilution plate (Cat #P-05525, Labcyte);
(§4) b) Dilute compound solution thereof to 1:100 in medium to prepare 10-fold working solution;
(§5) a) Centrifuge the growth cells in logarithmic phase at 1000 rpm for 5 minutes, resuspend the cells in culture medium, and then count the cells;
(§6) b) Inoculate the cells into a 96-well cell culture plate with a density of 2000 cells/well;
(§7) a) The compound prepared in Step 2 was added to a cell plate with 15 μL per well at final concentrations of 1000, 333, 111.1, 37, 12.3, 4.1, 1.4, 0.5, 0.2, and 0 nM. The final concentration of DMSO was 0.1%. The blank control well is with medium (0.1% DMSO).
(§8) b) Incubate cells in an incubatorother 72 hours;
(§9) a) Take out the 96-well cell culture plate and add 50 μl CTG reagent (CellTiter Glo kit, promega, Cat #G7573);
(§10) b) Shake the plate for 2 minutes and let cool at room temperature for 10 minutes,
(§11) c) Read luminous signal value with Perkin Elmer reader.
(§12) Analysis of Experimental Data
(§13) The data were analyzed by GraphPad Prism 6.0 software to obtain the fitting curve of compound activity.
(§14) Fining compound IC50 from nonlinear regression equation:
(§15) Y=Min+(Max−Min)/(1+10^((LogIC50−X)*slope));
(§16) X: Logarithm of compound concentration; Y: luminous signal
(§17) As illustrated in examples, IC50 value is within the following range for the compound of the present invention: “A” represents “IC50≤50 nM”; “B” represents “50 nM<IC50<100 nM”.

[3] = molecular target: Ba/F3-Δ19del/T790M/C797S (Homo sapiens, UniProt P00533, T790M/C797S, cells depend on it, form not given); assay: Ba/F3-Δ19del/T790M/C797S cell proliferation assay (CellTiter Glo, 72 h); assay type: cell-based; conditions: CTG, read-out: BaF3 Δ19del/T790M/C797S IC50
Ba/F3-Δ19del/T790M/C797S, sequence (P00533 with tags, fused parts or gaps DEL746-750/T790M/C797S, form open): as the sequence (P00533 with tags, fused parts or gaps DEL746-750/T790M/C797S, form open) above
Method: as §1, §2, §3, §4, §5, §6, §7, §8, §9, §10, §11, §12, §13, §14, §15, §16, §17

[4] = test system: A431 EGFR wild-type cell line; assay: A431 EGFR wild-type cell proliferation assay (CellTiter Glo, 72 h); assay type: cell-based; conditions: Homo sapiens, A-431, CTG, read-out: A431 EGFR WT IC50
Method: as §1, §2, §3, §4, §5, §6, §7, §8, §9, §10, §11, §12, §13, §14, §15, §16, §17

SMILES	IC50 ([1]; numeric values) [nM]	GI50 ([2]; numeric values) [nM]	GI50 ([3]; numeric values) [nM]	IC50 [4] [nM]	IC50 ([1]; class symbols) [nM]	GI50 ([2]; class symbols) [nM]	GI50 ([3]; class symbols) [nM]
CCn1cc(-c2cc(Nc3ncc(Br)c(Nc4ccc5nccnc5c4P(C)(C)=O)n3)c(OC)cc2N2CCC(N3CCN(C)CC3)CC2)cn1 [Compound 19]	0.3	1.3	1	135	–	–	–
COc1cc(N2CCOCC2)c(-c2cnn(C)c2)cc1Nc1ncc(Cl)c(Nc2ccc3nccnc3c2P(C)(C)=O)n1 [Compound 9]	0.3	16.8	8	252	–	–	–
COc1cc(N2CCC(N(C)C)CC2)c(-c2cn[nH]c2)cc1Nc1ncc(Cl)c(Nc2ccc3nccnc3c2P(C)(C)=O)n1 [Compound 3, (6-((5-Chloro-2-((4-(4-(dimethylamino)piperidin-1-yl)-2-methoxy-5-(1H-pyrazol-4-yl)benzene)amino)pyrimidin-4-yl)amino)quinoxalin-5-yl)dimethylphosphine oxide]	0.3	60.4	60.4	571	–	–	–
COc1cc(N2CCN(C3CCCC3)CC2)c(-c2cnn(C)c2)cc1Nc1ncc(Br)c(Nc2ccc(C)c(C)c2P(C)(C)=O)n1 [Compound 26, (6-((5-Bromo-2-((4-(4-cyclopentylpiperazine-1-yl)-2-methoxy-5-(1-methyl-1H-pyrazole-4-yl)phenyl)amino)pyrimidin-4-yl)amino)-2,3-dimethylphenyl)dimethylphoshine oxide]	0.2	2.8	4.6	241	–	–	–
COc1cc(N2CCC(N3CCN(C)CC3)CC2)c(-c2cnn(C)c2)cc1Nc1ncc(Cl)c(Nc2ccc3nc(C4CC4)ccc3c2P(C)(C)=O)n1 [Compound 28, (6-((5-Chloro-2-((2-methoxy-5-(1-methyl-1H-pyrazol-4-yl)-4-(4-(4-methylpiperazine-1-yl)piperidine-1-yl)phenyl)amino)pyrimidin-4-yl)amino)-2-cyclopropylquinolin-5-yl)dimethylphosphine oxide]	0.31	6.6	1	201	–	–	–
COc1cc(N2CCN3CCCCC3C2)c(-c2cnn(C)c2)cc1Nc1ncc(Cl)c(Nc2ccc3nccnc3c2P(C)(C)=O)n1 (stereo in doubt) [Compound 18]	0.2	8.2	6.7	112	–	–	–
COc1cc(N2CCC(N3CCN(C)CC3)CC2)c(-c2cnn(C(F)F)c2)cc1Nc1ncc(Br)c(Nc2ccc3nccnc3c2P(C)(C)=O)n1 [Compound 17]	0.3	3.8	3.5	120	–	–	–
CCn1cc(-c2cc(Nc3ncc(Br)c(Nc4ccc(C)c(C)c4P(C)(C)=O)n3)c(OC)cc2N2CCC(N3CCCCC3)CC2)cn1 [Compound 20]	0.2	0.4	0.7	152	–	–	–
CCn1cc(-c2cc(Nc3ncc(Br)c(Nc4ccc(C)c(C)c4P(C)(C)=O)n3)c(OC)cc2N2CCOCC2)cn1 [Compound 21]	0.3	3.6	0.7	465	–	–	–
COc1cc(N2CCN(C3CCCC3)CC2)c(-c2cnn(C)c2)cc1Nc1ncc(Br)c(Nc2ccc3nc(C4CC4)ccc3c2P(C)(C)=O)n1 [Compound 27, (6-((5-Bromo-2-((4-(4-cyclopentylpiperazine-1-yl)-2-methoxy-5-(1-methyl-1H-pyrazole-4-Yl)phenyl)amino)pyrimidin-4-yl)amino)-2-cyclopropylquinolin-5-yl)dimethylphosphine oxide]	1.3	8.7	–	1170	–	–	–
COc1cc(N2CCC(N(C)C)CC2)c(-c2cnn(C)c2)cc1Nc1ncc(Cl)c(Nc2ccc(C)c(C)c2P(C)(C)=O)n1 [Compound 4, (6-((5-Chloro-2-((4-(4-(dimethylamino)piperidine-1-yl)-2-methoxy-5-(1-methyl-1H-pyrazole-4-yl)phenyl)amino)pyrimidine-4-yl)amino)-2,3-dimethylphenyl)dimethylphosphine oxide]	–	14.9	10.2	192	≤ 1	–	–
COc1cc(N2CCN(C3CCCC3)CC2)c(-c2cnn(C)c2)cc1Nc1ncc(Br)c(Nc2ccc3nccnc3c2P(C)(C)=O)n1 [Compound 25, (6-((5-Bromo-2-((4-(4-cyclopentylpiperazine-1yl)-2-methoxy-5-(1-methyl-1H-pyrozole-4-yl)phenyl)amino)pyrimidin-4-yl)amino)quinoxalin-5-yl) dimethylphosphine oxide]	0.3	4	2.5	107	–	–	–
CCn1cc(-c2cc(Nc3ncc(Br)c(Nc4ccc(C)c(C)c4P(C)(C)=O)n3)c(OC)cc2N2CCC(N3CCN(C)CC3)CC2)cn1 [Compound 22, (6-((5-Bromo-2-((5-(1-ethyl-1h-pyrazol-4-yl)-2methoxy-4-(4-(4-methylpiperazine-1-yl)piperidin-1-yl)phenyl)amino)pyrimidine-4-yl)amino)-2,3-dimethylphenyl)dimethylphosphine oxide]	4.2	31.1	24.6	3260	–	–	–
COc1cc(N2CCC(N(C)C)CC2)c(-c2cnn(C)c2)cc1Nc1ncc(Cl)c(Nc2ccc3nccnc3c2P(C)(C)=O)n1 [Compound 2]	0.2	18.3	6.5	110	–	–	–
COc1cc(N2CCC(N3CCCCC3)CC2)c(-c2cnn(C)c2)cc1Nc1ncc(Br)c(Nc2ccc(C3CC3)c(C)c2P(C)(C)=O)n1 [Compound 13]	–	–	–	–	≤ 1	≤ 50	≤ 50
